Values after ≈ are worked out from the molar mass of the structure shown.
What was measured:
Test in all cases: Antifungal susceptibility study (1), broth microdilution MIC
Assay type in all cases: cell-based
[1] = tested on: Candida albicans ATCC 14053; settings: lowest concentration preventing any visible growth, read at 48 hours, 35° C., RPMI 1640 pH 7.0
Method: (§1) ACROS ORGANICS, New Jersey, USA), pH 7.0, was used in study. […] Then these DMSO solutions were diluted 50-fold (first 10-fold and then 5-fold) in the test medium. […] The solutions were prepared just before using. The organisms used for susceptibility testing were: Candida albicans ATCC 14053, Cryptococcus humicolus ATCC 9949, Aspergillus niger ATCC 16404 and Fusarium oxysporum VKM F-140 (=CMI, IMI 90473). Organisms were stored on potato dextrose agar […] 50% glycerol solution at -70° C. For short-term storage, stock cultures were stored on agar […] 4° C. The cultures of yeasts were sub-cultured onto Sabouraud dextrose (SAB) agar and incubated for 24 hours at 35° C. (Candida albicans) or for 48 hours at 25° C. (Cryptococcus humicolus) to obtain a freshly grown pure culture. The cultures of moulds were sub-cultured onto potato dextrose agar and incubated for 7 days at 35° C. […] (Fusarium oxysporum) to ensure maximum sporulation. […] Inoculum quantitation was performed by plating dilution of the inoculum on Sabouraud dextrose agar to determine the viable number of CFU per milliliter. Sterile 96-well flat-bottomed microtitration plates were used for testing. 100 μl of diluted inocula were dispensed into each microdilution well containing 100 μl of the double dilutions of compounds. Drug-free and yeast/mould-free controls were included. Microdilution trays were incubated at 35° C. (Candida albicans and moulds) or 25° C. (Cryptococcus humicolus) without agitation and observed for the presence or absence of visible growth. […] Minimal inhibitory concentrations (MICs) were read at 48 hours.

[2] = tested on: Cryptococcus humicolus ATCC 9949; settings: lowest concentration preventing any visible growth, read at 48 hours, 25° C., RPMI 1640 pH 7.0
Method: as §1

[3] = tested on: Aspergillus niger ATCC 16404; settings: lowest concentration preventing any visible growth, read at 48 hours, 35° C., RPMI 1640 pH 7.0
Method: (§2) ACROS ORGANICS, New Jersey, USA), pH 7.0, was used in study. […] Then these DMSO solutions were diluted 50-fold (first 10-fold and then 5-fold) in the test medium. […] The solutions were prepared just before using. The organisms used for susceptibility testing were: Candida albicans ATCC 14053, Cryptococcus humicolus ATCC 9949, Aspergillus niger ATCC 16404 and Fusarium oxysporum VKM F-140 (=CMI, IMI 90473). Organisms were stored on potato dextrose agar […] 50% glycerol solution at -70° C. For short-term storage, stock cultures were stored on agar […] 4° C. The cultures of yeasts were sub-cultured onto Sabouraud dextrose (SAB) agar and incubated for 24 hours at 35° C. (Candida albicans) or for 48 hours at 25° C. (Cryptococcus humicolus) to obtain a freshly grown pure culture. The cultures of moulds were sub-cultured onto potato dextrose agar and incubated for 7 days at 35° C. […] (Fusarium oxysporum) to ensure maximum sporulation. […] Finally, the suspensions were vortexed for 15 s to break up clumps of cells and then filtered through four layers of sterile gauze. The densities of conidial spore suspensions was measured at 530 nm and adjusted to 0.09-0.11 for Aspergillus niger and 0.15-0.17 for Fusarium oxysporum. These suspensions were diluted 1:50 with the standard medium. […] Inoculum quantitation was performed by plating dilution of the inoculum on Sabouraud dextrose agar to determine the viable number of CFU per milliliter. Sterile 96-well flat-bottomed microtitration plates were used for testing. 100 μl of diluted inocula were dispensed into each microdilution well containing 100 μl of the double dilutions of compounds. Drug-free and yeast/mould-free controls were included. Microdilution trays were incubated at 35° C. (Candida albicans and moulds) or 25° C. (Cryptococcus humicolus) without agitation and observed for the presence or absence of visible growth. […] Minimal inhibitory concentrations (MICs) were read at 48 hours.

[4] = tested on: Fusarium oxysporum VKM F-140; settings: lowest concentration preventing any visible growth, read at 48 hours, 35° C., RPMI 1640 pH 7.0
Method: as §2

MIC Candida albicans ATCC 14053 [1] | MIC Cryptococcus humicolus ATCC 9949 [2] | MIC Aspergillus niger ATCC 16404 [3] | MIC Fusarium oxysporum VKM F-140 [4] | Compound
1 µg/mL (≈ 0.938 µM) | 1 µg/mL (≈ 0.938 µM) | 2 µg/mL (≈ 1.88 µM) | 16 µg/mL (≈ 15 µM) | CC1C=CC=CC=CC=CC=CC=CC=CC(OC2OC(C)C(O)C(NC(=O)CN(C)C)C2O)CC2OC(O)(CC(O)C(O)CCC(O)CC(O)CC(O)CC(=O)OC(C)C(C)C1O)CC(O)C2C(=O)NCCCO (stereo not drawn) [Compound 39]
2 µg/mL | 2 µg/mL | 2 µg/mL | 2 µg/mL | CC1O[C@@H](O[C@H]2/C=C/C=C/C=C/C=C/C=C/C=C/C=C/[C@H](C)[C@@H](O)[C@@H](C)[C@H](C)OC(=O)C[C@H](O)C[C@H](O)C[C@H](O)CC[C@@H](O)[C@H](O)C[C@]3(O)C[C@H](O)[C@@H](C)[C@H](C2)O3)[C@H](O)C(N)[C@@H]1O.N[C@@H](CC(=O)O)C(=O)O (stereo partly drawn) [Compound 55]
2 µg/mL (≈ 1.95 µM) | 2 µg/mL (≈ 1.95 µM) | 2 µg/mL (≈ 1.95 µM) | 8 µg/mL (≈ 7.79 µM) | CC1O[C@@H](O[C@H]2/C=C/C=C/C=C/C=C/C=C/C=C/C=C/[C@H](C)[C@@H](O)[C@@H](C)[C@H](C)OC(=O)C[C@H](O)C[C@H](O)C[C@H](O)CC[C@@H](O)[C@H](O)C[C@]3(O)C[C@H](O)[C@@H](C)[C@H](C2)O3)[C@H](O)C(NCc2ccc(N(C)C)cc2)[C@@H]1O (stereo partly drawn) [Compound 50, N-(4-N,N-Di-methylaminobenzyl) Compound 1]
1 µg/mL (≈ 0.926 µM) | 2 µg/mL (≈ 1.85 µM) | 1 µg/mL (≈ 0.926 µM) | 4 µg/mL (≈ 3.71 µM) | CC1O[C@@H](O[C@H]2/C=C/C=C/C=C/C=C/C=C/C=C/C=C/[C@H](C)[C@@H](O)[C@@H](C)[C@H](C)OC(=O)C[C@H](O)C[C@H](O)C[C@H](O)CC[C@@H](O)[C@H](O)C[C@]3(O)C[C@H](O)[C@@H](C(=O)NCCN(C)C)[C@H](C2)O3)[C@H](O)C(NC(=O)CN(C)C)[C@@H]1O (stereo partly drawn) [Compound 45]
2 µg/mL | 2 µg/mL | 2 µg/mL | 2 µg/mL | CC1O[C@@H](O[C@H]2/C=C/C=C/C=C/C=C/C=C/C=C/C=C/[C@H](C)[C@@H](O)[C@@H](C)[C@H](C)OC(=O)C[C@H](O)C[C@H](O)C[C@H](O)CC[C@@H](O)[C@H](O)C[C@]3(O)C[C@H](O)[C@@H](C)[C@H](C2)O3)[C@H](O)C(N)[C@@H]1O.O=C(O)C(Cl)Cl (stereo partly drawn) [Compound 57]
1 µg/mL | 2 µg/mL | 2 µg/mL | 4 µg/mL | CC1O[C@@H](O[C@H]2/C=C/C=C/C=C/C=C/C=C/C=C/C=C/[C@H](C)[C@@H](O)[C@@H](C)[C@H](C)OC(=O)C[C@H](O)C[C@H](O)C[C@H](O)CC[C@@H](O)[C@H](O)C[C@]3(O)C[C@H](O)[C@@H](C(=O)NCCN(C)C)[C@H](C2)O3)[C@H](O)C(NC(=O)[C@@H](N)CCCCN)[C@@H]1O.Cl (stereo partly drawn) [Compound 44]

The next lines start with the compound.

Compound | MIC Candida albicans ATCC 14053 [1] | MIC Cryptococcus humicolus ATCC 9949 [2] | MIC Aspergillus niger ATCC 16404 [3] | MIC Fusarium oxysporum VKM F-140 [4]
CC1C=CC=CC=CC=CC=CC=CC=CC(OC2OC(C)C(O)C(NCC3(O)OCC(O)C(O)C3O)C2O)CC2OC(O)(CC(O)C(O)CCC(O)CC(O)CC(O)CC(=O)OC(C)C(C)C1O)CC(O)C2C(=O)NCCCO (stereo not drawn) [Compound 36] | 4 µg/mL (≈ 3.5 µM) | 4 µg/mL (≈ 3.5 µM) | 4 µg/mL (≈ 3.5 µM) | 16 µg/mL (≈ 14 µM)
COC(=O)C(C)NC(=O)C1C(O)CC2(O)CC(O)C(O)CCC(O)CC(O)CC(O)CC(=O)OC(C)C(C)C(O)C(C)C=CC=CC=CC=CC=CC=CC=CC(OC3OC(C)C(O)C(N)C3O)CC1O2 (stereo not drawn) [Compound 10] | 2 µg/mL (≈ 1.98 µM) | 2 µg/mL (≈ 1.98 µM) | 4 µg/mL (≈ 3.96 µM) | 8 µg/mL (≈ 7.93 µM)
CC1C=CC=CC=CC=CC=CC=CC=CC(OC2OC(C)C(O)C(NCc3ccc(N(C)C)cc3)C2O)CC2OC(O)(CC(O)C(O)CCC(O)CC(O)CC(O)CC(=O)OC(C)C(C)C1O)CC(O)C2C(=O)NCCCN(C)C (stereo not drawn) [Compound 32] | 2 µg/mL (≈ 1.75 µM) | 2 µg/mL (≈ 1.75 µM) | 2 µg/mL (≈ 1.75 µM) | 8 µg/mL (≈ 7.01 µM)
COC(=O)C(NC(=O)C1C(O)CC2(O)CC(O)C(O)CCC(O)CC(O)CC(O)CC(=O)OC(C)C(C)C(O)C(C)C=CC=CC=CC=CC=CC=CC=CC(OC3OC(C)C(O)C(N)C3O)CC1O2)C(C)C (stereo not drawn) [Compound 8] | 2 µg/mL (≈ 1.93 µM) | 2 µg/mL (≈ 1.93 µM) | 4 µg/mL (≈ 3.86 µM) | 8 µg/mL (≈ 7.71 µM)
CC1C=CC=CC=CC=CC=CC=CC=CC(OC2OC(C)C(O)C(NCC3(O)OCC(O)C(OC4OC(CO)C(O)C(O)C4O)C3O)C2O)CC2OC(O)(CC(O)C(O)CCC(O)CC(O)CC(O)CC(=O)OC(C)C(C)C1O)CC(O)C2C(=O)O (stereo not drawn) [Compound 19] | 2 µg/mL (≈ 1.6 µM) | 2 µg/mL (≈ 1.6 µM) | 2 µg/mL (≈ 1.6 µM) | 8 µg/mL (≈ 6.41 µM)
CC1C=CC=CC=CC=CC=CC=CC=CC(OC2OC(C)C(O)C(NC(=O)C(N)CCCCN)C2O)CC2OC(O)(CC(O)C(O)CCC(O)CC(O)CC(O)CC(=O)OC(C)C(C)C1O)CC(O)C2C(=O)O (stereo not drawn) [Compound 23] | 4 µg/mL (≈ 3.8 µM) | 4 µg/mL (≈ 3.8 µM) | 8 µg/mL (≈ 7.6 µM) | 8 µg/mL (≈ 7.6 µM)
CC1C=CC=CC=CC=CC=CC=CC=CC(OC2OC(C)C(O)C(NC(=O)CN(C)C)C2O)CC2OC(O)(CC(O)C(O)CCC(O)CC(O)CC(O)CC(=O)OC(C)C(C)C1O)CC(O)C2C(=O)NCCCN(C)C (stereo not drawn) [Compound 34] | 1 µg/mL (≈ 0.915 µM) | 2 µg/mL (≈ 1.83 µM) | 1 µg/mL (≈ 0.915 µM) | 4 µg/mL (≈ 3.66 µM)
CC1C=CC=CC=CC=CC=CC=CC=CC(OC2OC(C)C(O)C(NCc3ccc(N(C)C)cc3)C2O)CC2OC(O)(CC(O)C(O)CCC(O)CC(O)CC(O)CC(=O)OC(C)C(C)C1O)CC(O)C2C(=O)NCCCO (stereo not drawn) [Compound 37] | 2 µg/mL (≈ 1.79 µM) | 1 µg/mL (≈ 0.897 µM) | 2 µg/mL (≈ 1.79 µM) | 4 µg/mL (≈ 3.59 µM)
CC1C=CC=CC=CC=CC=CC=CC=CC(OC2OC(C)C(O)C(NC(=O)C(N)CCCCN)C2O)CC2OC(O)(CC(O)C(O)CCC(O)CC(O)CC(O)CC(=O)OC(C)C(C)C1O)CC(O)C2C(=O)NCCCO (stereo not drawn) [Compound 38] | 1 µg/mL (≈ 0.901 µM) | 1 µg/mL (≈ 0.901 µM) | 2 µg/mL (≈ 1.8 µM) | 4 µg/mL (≈ 3.61 µM)
